One experiment concerns myofibroblast formation. As to conditions: capsular contracture with breast implants, Ajmal et al. (2003); cited from earlier work.
In the next experiment the test system is fibrinolysis. In words: prevention / reversal of fibrinolysis. The following applies: one tenth of the doses used in the non-GLP acute porcine study.

Here are results for two molecules from patent US20220211477A1, “SURGICAL SYSTEM AND METHODS OF USE” (priority 2021, published 2022).

With `O=S(=O)([O-])CCS.[Na+]` [MESNA, sodium 2-mercaptoethane sulfonate], the myofibroblast formation result in the experiment on myofibroblast formation is recorded as “diminish myofibroblast formation”.

Consider `NC[C@H]1CC[C@H](C(=O)O)CC1` [tranexamic acid, trans-4-(aminomethyl)cyclohexanecarboxylic acid], for which, in the experiment with fibrinolysis, the “effect in reversing fibrinolysis” value is on record as “effective in reversing fibrinolysis”.
